Data published in patent US7897369B2, “Isoprenoid wax ester synthases, isoprenoid acyl CoA-synthetases, and uses thereof” (Regents of the University of Minnesota, priority 2007, dated 2011).

Legend:
[1] = system: S. cerevisiae H1246 expressing WS2; experiment: Heterologous expression of WS2 in TAG deficient yeast, FAEE by TLC; format: cell-based, Saccharomyces cerevisiae; settings: H1246 given both ethanol and oleic acid as substrates
Description: Fifteen milliliters of grown yeast were centrifuged for 10 minutes at 4000 rpm. The cell pellets were vortexed vigorously with glass beads for 5 minutes to lyse open cells and extracted with 1 mL chloroform of which 5 μL were spotted on TLC with Whatman normal phase silica gel 60 plates and developed using hexane:diethyl ether:acetic acid (90:10:1, v/v/v). TLC plates were stained with either iodine vapor.

[2] = system: S. cerevisiae YGL035c expressing WS2; experiment: Heterologous expression of WS2 in MIG1 deletion yeast, ethyloleate by TLC and GC; format: cell-based, Saccharomyces cerevisiae
Description: S. cerevisiae YGL035c BY4742 with following genotype: MATalpha his3Δ1 leu2Δ0 lys2Δ0 ura3Δ0 ΔMIG1 was purchased from ATCC ([…]; Manassas, Va.). S. cerevisiae YGL035c was cultivated for electro transformation in YPG (Yeast peptone glucose) medium at 30° C. overnight. 100 μL of washed yeast cell pellets were electroporated with 5 μL of pESC_URA for the negative control or 5 μL of pESC URA WS2, which expresses acyltransferase gene constructs. Cells were rescued with 800 μL 1M sorbitol and 200 μL were plated onto synthetic minimal media drop out agar plates without uracil. Colonies were seen after 2 days and were picked and grown in nitrogen base medium (Difco Detroit Mich.) […], and 0.13% (wt/vol), synthetic dropout medium supplement without uracil, and 2% (wt/vol) glucose. One hundred milliliter yeast cultures were grown aerobically overnight at 30° C. in 250 ml flask with synthetic dropout uracil growth media with glucose. Cells were spun down and resuspended in 200 mL of fresh dropout media with 2% glucose, 0.1% potassium oleate, and 2% galactose to induce expression of heterologous protein. Cultures were capped with a rubber stopper with syringe needle piercing the top of the rubber stopper to allow gas (carbon dioxide) to exit during the 72 hours anaerobic growth. Cells were harvested and resuspended in 1 mL of chloroform and approximately 0.5 grams of glass beads. Total lipid composition of yeast was determined from cells harvested from a 200-ml liquid culture, broken with glass-beads in a 50-mL Falcon tube, and extracted into 1.5 mL of chloroform.
Cells were vortexed vigorously for 5 minutes to lyse open cells and chloroform was removed and evaporated under nitrogen gas. 15 mL sample of 250 mL cultures were centrifuged and lysed with glass beads, the yeast lysates were resuspended in 1 ml chloroform for GC/MS analysis and TLC analysis.
Fifteen milliliters of grown yeast were centrifuged for 10 minutes at 4000 rpm. […]
For quantification of ethyloleate, chloroform extractions of three known amounts (1.5 nmoles, 15 nmoles, and 30 nmoles) of ethyloleate standard were injected into the gas chromatograph (GC) in which the peak areas were integrated to calculate the amounts of ethyloleate produced by YGL035c expressing WS2. Three microliters of chloroform extracts from the samples were injected and analyzed on a gas chromatography electron impact mass spectrometry that were performed with a Hewlett Packard 6890 series gas chromatograph connected to an HP 5973 mass spectrometer. […]

Acs2/WS2 = experiment: Acs2/WS2-coupled assay with oleic acid and ethanol (TLC); format: biochemical, Marinobacter hydrocarbonoclasticus; settings: oleic acid and ethanol as substrates, each 250 μM, 37° C. overnight
Description: In vitro coupled assays/TLC analysis—Stock solutions of various fatty acid substrates (oleic acid) were prepared in 50 mM Tris-HCl buffer (pH 8) containing 1% gum arabic, […], 0.1% taurocholate, and 100 mM of fatty acid. WS/Acs enzyme coupled assays were carried out in 500 μL reactions containing 50 mM Tris-HCl buffer pH 8.0, 12.5 μL of fatty acid stock solution and addition of ethyl alcohol solution (final concentrations of each substrate 250 μM), 10 mM MgCl2, 10 mM CoASH, 10 mM ATP, 5 mM TCEP, 0.1 U of inorganic pyrophosphatase, 0.25 μg of Acs2 (acyl CoA synthetase) and 0.5 μg of WS2 (wax ester synthase). Assays were incubated at 37° C. overnight before thin-layer chromatography (TLC) analysis of reaction products. In vitro WS assay samples were extracted with 500 μL of chloroform:methanol (1:1 [vol/vol]), and chloroform:methanol extracts were analyzed by TLC with Whatman normal phase silica gel 60 plates where products were separated using hexane:diethyl ether:acetic acid (90:10:1 [vol/vol/vol]). Products were compared to an ethyloleate standard. Resolved TLC plates were stained with iodine vapor.

Row | Structure (SMILES) | Ethyloleate production in vivo (TLC) [1] | Ethyloleate formed from the oleate added ([2]; 250 mL culture, 889 μmoles oleate added) | Ethyloleate production in vivo (TLC) ([2]; Mig1 deletion yeast expressing pESC-URA-WS2, galactose induced, grown anaerobically with 0.1% potassium oleate) | Ethyloleate production in vivo (TLC) ([2]; potassium oleate not supplemented) | Ethyloleate formation in Acs2/WS2-coupled assay (TLC) (Acs2/WS2) | % Efficiency oleate to ethyloleate ([2]; 0.1% (wt/vol) oleate in 250 mL (889 μmoles))
1 | CCCCCCCC/C=C\CCCCCCCC(=O)OCC [ethyloleate] | produced in vivo | approximately 50 μmol | shown in vivo | No ethyloleate product was seen | – | –
2 | CCCCCCCC/C=C\CCCCCCCC(=O)O [oleic acid] | – | – | – | – | ethyloleate ester product was synthesized in vitro | 5.5%
